Laboratory results from patent US11965006B2, “Antimicrobial and anti-cancer therapy” (UNIVERSITY OF PITTSBURGH—OF THE COMMONWEALTH SYSTEM OF …, priority 2016, dated 2024).
“Also recorded” adds a separate entry of the source. Read-outs that look alike come from different tables or passages of the source. Ends that are not written are not given here.

Assays:
[1] = test system: Pseudomonas aeruginosa MDR clinical isolates; assay type: cell-based
Method: (§1) The bactericidal activities were examined using standard bacterial culture media (MHB) without the inclusion of human blood.
(§2) Tables 3 and 4 provide the MIC data for the tested AMPs against a variety of infectious species. The following strains were tested: Enterococcus faecium MDR clinical isolates Ef 25153 and Ef 26125; methicillin-resistant Staphylococcus aureus (MRSA) clinical isolates USA300 and 150-10; Klebsiella pneumonia MDR clinical isolates C3, C5, A5, D7 and E6; and Pseudomonas aeruginosa MDR clinical isolates PA 82-8 and PA 129-5. […] Table 5 provides the data for the D-amino acid substituted AMPs and their bactericidal activities against various Klebsiella pneumonia multi-drug resistant (MDR) clinical isolates. All odd number Kp bacteria (isolated prior to colistin treatment; colistin sensitive) are paired with the corresponding even number Kp bacteria (isolated after colistin treatment; colistin resistant) from the same patient. O.D. readings represent the bacterial growth with a background reading of about 0.049+/−0.003.

[2] = test system: Klebsiella pneumonia MDR clinical isolates; assay type: cell-based
Method: as §1, §2

[3] = test system: methicillin-resistant Staphylococcus aureus (MRSA) clinical isolates; assay type: cell-based
Method: as §1, §2

[4] = test system: Enterococcus faecium MDR clinical isolates; assay type: cell-based
Method: as §1, §2

[5] = In vivo toxicity / maximum tolerated dose; parameters: species or system Mice (strain: Swiss Webster); conditions: for maximum tolerated dose (MTD): i.v., Swiss Webster mice
Method: The modified AMPs show a lower toxicity and higher maximum tolerated dosage (MTD) than WLBU2 (SEQ ID No. 26). The MTD for WLBU2 (SEQ ID No. 26) is 15 mg/kg, for Colistin is 10 mg/kg, and SEQ ID No. 15 is 30 mg/kg (FIG. 14A).
Mice (strain: Swiss Webster) were injected with SEQ ID No. 15 peptides intravenously (i.v.) or intraperitoneally (i.p.) at the concentrations indicated. […] Thus, the estimated maximum tolerated dose (MTD) is around 40-50 mpk (i.v.). On a similar setting of testing other AMPS, the MTD for WLBU2 is 15 mpk (i.v.) and 10 mpk (i.v.) for colistin.

[6] = test system: P. aeruginosa lipopolysaccharide (LPS)-induced secretion of tumor necrosis factor (TNF) in Raw (264.7) Cells; assay: Neutralization of LPS-induced TNF secretion; assay type: cell-based; conditions: 1 μg/ml LPS
Method: Anti-inflammatory activity is based on the determination of cytokine stimulation of major inflammatory (e.g. TNF) or anti-inflammatory (e.g., IL-10) cytokines. For in vitro studies, TNF is measured using culture medium from LPS-stimulated macrophage cultures in the presence or absence of peptide treatment. For in vivo studies, cytokine levels in bronchoalveolar lavage (BAL) fluid were quantified using the mouse cytokine multiplex panel assay (Milliplex; Millipore, Billerica, Mass.). The expressions of cytokines were analyzed using the Luminex assay system, based on manufacturer's instructions and our previous publication. Standard recombinant protein solution was used to generate a standard curve for each analyzed protein. Absolute cytokine concentrations were calculated from the standard curve for each cytokine.
A high dosage (1 μg/ml) of LPS was used to stimulate the TNF secretion in raw cells.

[7] = test system: Pseudomonas aeruginosa; assay type: cell-based; conditions: for MIC: 18 h
Method: as §1
FIG. 5 illustrates the bactericidal activity of the 30 amino acid AMP series against Pseudomonas aeruginosa (by kinetic assay) over time (hours). […] OD reading, at 570 nm, represents bacterial growth; background reading (˜0.05) was subtracted from sample readings. Bolded concentration indicates the determined MIC. For example, MIC for SEQ ID No. 4 was 4 μM, MIC for SEQ ID No. 8 was 2 μM, MIC for SEQ ID No. 7 was 2 μM, MIC for SEQ ID No. 5 was 2 μM, MIC for SEQ ID No. 6 was 2 μM, and MIC for SEQ ID No. 9 was 2 μM.
FIG. 6 illustrates the bactericidal activity of the 24 amino acid AMPs series against Pseudomonas aeruginosa (by kinetic assay) over time (hours). […] OD reading, at 570 nm, represents bacterial growth; background reading (˜0.05) was subtracted from sample readings. Bolded concentration indicates the determined MIC.

[8] = test system: P. aeruginosa; assay: In vivo respiratory P. aeruginosa infection; conditions: high dosage bacterial inoculation, FIG. 16
[9] = methicillin-resistant clinical isolates, 18 h

Substance | neutralizing LPS-induced TNF secretion [6] | MIC PA82 82-8 ([1]; MDR clinical isolates, 18 h) [µM] | MIC PA 129-5 ([1]; MDR clinical isolates, 18 h) [µM] | MIC A5 ([2]; 18 h) [µM] | MIC C3 ([2]; 18 h) [µM] | MIC C5 ([2]; 18 h) [µM] | MIC MRSA 150-10 [3, 9] [µM] | MIC MRSA USA300 [3, 9] [µM] | MIC Ef 25153 ([4]; MDR clinical isolates, 18 h) [µM] | MIC Ef 26125 ([4]; MDR clinical isolates, 18 h) [µM] | MIC D7 ([2]; 18 h) [µM] | MIC E6 ([2]; 18 h) [µM] | MIC [7] [µM] | further results
Colistin [reference compound] | Do Not Neutralize | – | – | – | – | – | – | – | – | – | – | – | – | MIC PA 82-8 ([1]; isolate PA 82-8, Table 3): <16 µM; MIC PA 129-5 ([1]; isolate PA 129-5, Table 3): <16 µM; MIC A5 ([2]; isolate A5, Table 3): >32 µM; MIC C3 ([2]; isolate C3, Table 3): >32 µM; MIC C5 ([2]; isolate C5, Table 3): >32 µM; MIC D7 ([2]; isolate D7, Table 3): <16 µM; MIC E6 ([2]; isolate E6, Table 3): <16 µM; MIC MRSA 150-10 ([3]; isolate 150-10, Table 3): <16 µM; MIC MRSA USA300 ([3]; isolate USA300, Table 3): <16 µM; MIC Ef 25153 ([4]; isolate Ef 25153, Table 3): <16 µM; MIC Ef 26125 ([4]; isolate Ef 26125, Table 3): <16 µM; maximum tolerated dosage (MTD) ([5]; FIG. 14A): 10 mg/kg; maximum tolerated dose (MTD) [5]: 10 mpk
ILKKWWGTSGGLLGGLLGKVTSVIKGLNNI [SEQ ID No. 3] | good activity; also recorded: display Neutralizing Activities | >32 | >32 | 32 | >32 | >32 | <32 | <32 | 16 | 16 | – | – | – | bactericidal activity ([7]; kinetic assay, FIG. 5): did not have strong bactericidal activity
ILKKWWKTSGGLLGGLLGKVTSVIKGLNNI [SEQ ID No. 4] | good activity; also recorded: display Neutralizing Activities | >4 | 4 | >4 | >4 | 4 | >4 | >4 | >4 | <2 | <2 | >4 | 4 | –
ILKKWWKTSKGLLGGLLGGVTSVIKKLKKI [SEQ ID No. 7] | – | 2 | <2 | – | <2 | 4 | <2 | <2 | >4 | <2 | <2 | <2 | 2 | –
ILKKWWKTSKGLLGGLLGGVTSVIKKLKKI [SEQ ID No. 8] | – | >4 | <2 | >4 | <2 | 4 | 4 | <2 | >4 | <2 | <2 | <2 | 2 | –
ILKKWWKTSKGLLGGLLGKVTSVIKGLKNI [SEQ ID No. 6] | display Neutralizing Activities | >4 | >4 | >4 | 4 | 4 | <2 | >4 | >4 | <1 | 4 | 4 | 2 | –
ILKKWWKTSKGLLGGLLGKVTSVIKGLNNI [SEQ ID No. 5] | good activity; also recorded: display Neutralizing Activities | >4 | <1 | >4 | 4 | 2 | >4 | >4 | >4 | <2 | <1 | 4 | 2 | –
ILKKWWKTVKGLLGGLLGGVTSVIKKLKKI [SEQ ID No. 9] | – | >4 | >4 | >4 | <2 | 4 | <2 | <2 | <2 | <2 | <2 | <2 | 2 | –
LKKWWKKVKGLLGGLLGK [SEQ ID No. 19, LKKWWKKVKGLLGGLLGK] | good activity; also recorded: Display Neutralizing Activities | 8 | <1 | <2 | <2 | – | <1 | <2 | <2 | <2 | <2 | <2 | – | antimicrobial activity against respiratory P. aeruginosa infection [8]: excellent antimicrobial activity
LKKWWKKVKGLLGGLLGKVTSVIK [SEQ ID No. 15] | – | 2 | 1 | >4 | <2 | 4 | 2 | 4 | 2 | <1 | 2 | 2 | – | tolerability ([5]; 60 mg/kg i.v.): One mouse injected with 60 mg/kg (mpk, i.v.) died; tolerability ([5]; 30 mpk i.p.): all mice were active and tolerated the dosage; tolerability ([5]; 40 mpk i.v.): all mice were active and tolerated the dosage; MTD ([5]; Swiss Webster, mouse, in vivo, FIG. 14A, read-out: maximum tolerated dosage (MTD)): 30 mg/kg; in vivo toxicity ([5]; figure legends FIG. 14A, FIG. 30): lower toxicity (higher MTD) than WLBU2; also recorded: very low in vivo toxicity; maximum tolerated dose (MTD) [5]: 40-50 mpk
